Experimental data taken from patent US11186577B2, “Vasopressin receptor antagonists and products and methods related thereto” (BlackThorn Therapeutics, Inc., priority 2017, dated 2021).
Where two headings read alike, the source gives them in different places.

Legend:
Type in all cases: in vitro ADME
MDR1-MDCK cells = test: MDR1-MDCK effective efflux assay (Transwell, 10 μM, 1 hour), MDR1-MDCK cells; details: for Papp AB MDR1: MDR1-MDCK cells, apical to basolateral (A>B), 10 μM, 1 hour; for MDR1 EER / MDR1 ER: MDCK-MDR1
Outline: (§1)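 Wild-type and MDR1-MDCK monolayers cultured 3 days were dosed with compound at 10 μM (0.1% DMSO) in HBSS/25 mM HEPES pH 7.4, in both A>B and B>A directions, for 1 h at 37 °C. Samples were quantified by LC-MS/MS to give Papp and efflux ratio. Effective efflux ratio = ER(MDR1-MDCK)/ER(wild-type); Lucifer Yellow checked monolayer integrity.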

[1] = system: wild-type (WT) MDCK cells; test: MDR1-MDCK effective efflux assay (Transwell, 10 μM, 1 hour), wild-type MDCK cells; details: for Papp AB WT: wild-type MDCK cells, apical to basolateral (A>B), 10 μM, 1 hour; for WT ER: MDCK
Outline: as §1

MDR1 (P-glycoprotein) = test: MDR1-MDCK effective efflux assay (Transwell, 10 μM, 1 hour), MDR1-MDCK cells; details: dog
Outline: as §1

[2] = MDR1-MDCK effective efflux assay (Transwell, 10 μM, 1 hour), wild-type MDCK cells; details: dog, MDCK
Outline: as §1

[3] = MDCK-MDR1, pH 7.4, Papp AB MDR1
[4] = MDCK-MDR1, pH 7.4, MDR1-MDCK cells, apical to basolateral (A>B), 10 μM, 1 hour, read-out: Papp AB MDR1
[5] = pH 7.4, wild-type MDCK cells, apical to basolateral (A>B), 10 μM, 1 hour, read-out: Papp AB WT

Question: With `CC1c2nnc(C3CC4(C3)CN(c3ccc(F)cn3)C4)n2-c2ccc(Cl)cc2CN1C(=O)C(C)(C)F` (single isomer, unassigned) [Cpd 178A] as the compound, how does the “Papp AB MDR1” value (MDR1-MDCK cells) read?
Answer: Its value is “++++ ((++++) denotes >20 (10^-6 cm/sec))”.

Question: And the “Papp AB WT” value [1]?
Answer: The value was “++++ ((++++) denotes >20 (10^-6 cm/sec))”.

Question: Which results are given for `O=C(C1CC1)N1CC2(CC(c3nnc4n3-c3ccc(Cl)cc3CN(C(=O)C3(F)CC3)C4)C2)C1` [compound 136]?
Answer: MDR1 EER (MDR1-MDCK cells): +; MDR1 ER (MDR1-MDCK cells): +; Papp A→B at 1 h, 10 μM (MDR1 (P-glycoprotein); [3]): < 7 ×10⁻⁶ cm/s; Papp A→B at 1 h, 10 μM ([2]; pH 7.4, Papp AB WT): 10 to 20 ×10⁻⁶ cm/s; WT ER [1]: +

Question: What does the source list for `CC1c2nnc(C3CC4(C3)CN(c3ccc(F)cn3)C4)n2-c2ccc(Cl)cc2CN1C(=O)OC1CC1` (single isomer, unassigned) [Cpd 191A]?
Answer: Papp AB MDR1 (MDR1-MDCK cells): ++++ ((++++) denotes >20 (10^-6 cm/sec)); Papp AB WT [1]: ++++ ((++++) denotes >20 (10^-6 cm/sec))

Question: For `CC1c2nnc(C3CC4(C3)CN(c3ncccn3)C4)n2-c2ccc(Cl)cc2CN1C(=O)OC(CF)CF` (single isomer, unassigned) [Cpd 202A], which “Papp AB MDR1” value (MDR1-MDCK cells) is on record?
Answer: The value was “+ ((+) denotes an apparent permeability <7 (10^-6 cm/sec))”.

Question: What about the “Papp AB WT” value [1] of the same compound?
Answer: Its value is “++++ ((++++) denotes >20 (10^-6 cm/sec))”.

Question: Which “MDR1 EER” value (MDR1-MDCK cells) does the source give for `CC1c2nnc(C3CC4(C3)CN(c3ncccn3)C4)n2-c2ccc(Cl)cc2CN1C(=O)OC1CC1` (centres unmarked) [compound 171] here?
Answer: The value was “+”.

Question: What about the “MDR1 ER” value (MDR1-MDCK cells) of the same compound?
Answer: The value was “+”.

Question: What about the Papp A→B at 1 h, 10 μM (MDR1 (P-glycoprotein); [3]) of the same compound?
Answer: The Papp A→B at 1 h, 10 μM was 10 to 20 ×10⁻⁶ cm/s.

Question: And the Papp A→B at 1 h, 10 μM ([2]; pH 7.4, Papp AB WT)?
Answer: Its Papp A→B at 1 h, 10 μM is > 20 ×10⁻⁶ cm/s.

Question: And the “WT ER” value [1]?
Answer: The value was “++++”.

Question: Which Papp A→B at 1 h, 10 μM (MDR1 (P-glycoprotein); [4]) does the source give for `CCOC(=O)N1Cc2cc(Cl)ccc2-n2c(C3CC4(C3)CN(c3ccc(F)cn3)C4)nnc2C1C` (centres unmarked) [compound 169] here?
Answer: Its Papp A→B at 1 h, 10 μM is > 20 ×10⁻⁶ cm/s.

Question: And the Papp A→B at 1 h, 10 μM [2, 5]?
Answer: The Papp A→B at 1 h, 10 μM was > 20 ×10⁻⁶ cm/s.

Question: For `O=C(C(F)F)N1Cc2cc(Cl)ccc2-n2c(nnc2C2CC3(C2)CN(c2ccccn2)C3)C1` [compound 122], which Papp A→B at 1 h, 10 μM (MDR1 (P-glycoprotein); [4]) is on record?
Answer: Its Papp A→B at 1 h, 10 μM is 7 to 10 ×10⁻⁶ cm/s.

Question: What about the Papp A→B at 1 h, 10 μM [2, 5] of the same compound?
Answer: Its Papp A→B at 1 h, 10 μM is > 20 ×10⁻⁶ cm/s.

Question: Which results are given for `CC1c2nnc(C3CC4(C3)CN(c3ncccn3)C4)n2-c2ccc(Cl)cc2CN1C(=O)OC1CC1` (single isomer, unassigned) [Cpd 171A]?
Answer: Papp AB MDR1 (MDR1-MDCK cells): + ((+) denotes an apparent permeability <7 (10^-6 cm/sec)); Papp AB WT [1]: ++++ ((++++) denotes >20 (10^-6 cm/sec))

Question: For `O=C(OC(CF)CF)N1Cc2cc(Cl)ccc2-n2c(nnc2C2CC3(C2)CN(c2ccc(F)cn2)C3)C1` [compound 79], which Papp A→B at 1 h, 10 μM (MDR1 (P-glycoprotein); [4]) is on record?
Answer: The Papp A→B at 1 h, 10 μM was 10 to 20 ×10⁻⁶ cm/s.

Question: What about the Papp A→B at 1 h, 10 μM [2, 5] of the same compound?
Answer: The Papp A→B at 1 h, 10 μM was > 20 ×10⁻⁶ cm/s.

Question: Which Papp A→B at 1 h, 10 μM (MDR1 (P-glycoprotein); [4]) does the source give for `Clc1ccc2c(c1)CN(C1CC1)Cc1nnc(C3CC4(C3)CN(c3ccccn3)C4)n1-2` [compound 56] here?
Answer: The Papp A→B at 1 h, 10 μM was > 20 ×10⁻⁶ cm/s.

Question: What about the Papp A→B at 1 h, 10 μM [2, 5] of the same compound?
Answer: The Papp A→B at 1 h, 10 μM was > 20 ×10⁻⁶ cm/s.

Question: For `CC(CF)OC(=O)N1Cc2cc(Cl)ccc2-n2c(nnc2C2CC3(C2)CN(c2ccc(F)cn2)C3)C1` (centres unmarked) [compound 78], which Papp A→B at 1 h, 10 μM (MDR1 (P-glycoprotein); [4]) is on record?
Answer: The Papp A→B at 1 h, 10 μM was > 20 ×10⁻⁶ cm/s.

Question: And the Papp A→B at 1 h, 10 μM [2, 5]?
Answer: Its Papp A→B at 1 h, 10 μM is > 20 ×10⁻⁶ cm/s.

Question: Which “Papp AB MDR1” value (MDR1-MDCK cells) does the source give for `COC(=O)N1Cc2cc(Cl)ccc2-n2c(C3CC4(C3)CN(c3cnccn3)C4)nnc2C1C` (single isomer, unassigned) [Cpd 165A] here?
Answer: Its value is “+ ((+) denotes an apparent permeability <7 (10^-6 cm/sec))”.

Question: What about the “Papp AB WT” value [1] of the same compound?
Answer: The value was “++++ ((++++) denotes >20 (10^-6 cm/sec))”.

Question: Which Papp A→B at 1 h, 10 μM (MDR1 (P-glycoprotein); [4]) does the source give for `FC(F)CN1Cc2cc(Cl)ccc2-n2c(nnc2C2CC3(C2)CN(c2ccccn2)C3)C1` [compound 52] here?
Answer: Its Papp A→B at 1 h, 10 μM is 10 to 20 ×10⁻⁶ cm/s.

Question: What about the Papp A→B at 1 h, 10 μM [2, 5] of the same compound?
Answer: Its Papp A→B at 1 h, 10 μM is > 20 ×10⁻⁶ cm/s.

Question: What does the source list for `CN1Cc2cc(Cl)ccc2-n2c(nnc2C2CC3(C2)CN(c2ccc(F)cn2)C3)C1` [compound 1, 8-chloro-1-(2-(5-fluoropyridin-2-yl)-2-azaspiro[3.3]heptan-6-yl)-5-methyl-5,6-dihydro-4H-benzo[f][1,2,4]triazolo[4,3-a][1,4]diazepine]?
Answer: MDR1 EER (MDR1-MDCK cells): +; MDR1 ER (MDR1-MDCK cells): +; Papp A→B at 1 h, 10 μM (MDR1 (P-glycoprotein); [3]): 7 to 10 ×10⁻⁶ cm/s; Papp A→B at 1 h, 10 μM ([2]; pH 7.4, Papp AB WT): > 20 ×10⁻⁶ cm/s; WT ER [1]: ++

Question: Which results are given for `CN1Cc2cc(Cl)ccc2-n2c(nnc2C2CC3(C2)CN(c2cccc(F)n2)C3)C1` [compound 8]?
Answer: MDR1 EER (MDR1-MDCK cells): +++; MDR1 ER (MDR1-MDCK cells): +++; Papp A→B at 1 h, 10 μM (MDR1 (P-glycoprotein); [3]): > 20 ×10⁻⁶ cm/s; Papp A→B at 1 h, 10 μM ([2]; pH 7.4, Papp AB WT): > 20 ×10⁻⁶ cm/s; WT ER [1]: ++++

Question: With `COC(=O)N1Cc2cc(Cl)ccc2-n2c(C3CC4(C3)CN(c3ncccn3)C4)nnc2C1C` (centres unmarked) [compound 166] as the compound, how does the “MDR1 EER” value (MDR1-MDCK cells) read?
Answer: Its value is “+”.

Question: What about the “MDR1 ER” value (MDR1-MDCK cells) of the same compound?
Answer: The value was “+”.

Question: What about the Papp A→B at 1 h, 10 μM (MDR1 (P-glycoprotein); [3]) of the same compound?
Answer: Its Papp A→B at 1 h, 10 μM is < 7 ×10⁻⁶ cm/s.

Question: What about the Papp A→B at 1 h, 10 μM ([2]; pH 7.4, Papp AB WT) of the same compound?
Answer: The Papp A→B at 1 h, 10 μM was > 20 ×10⁻⁶ cm/s.

Question: And the “WT ER” value [1]?
Answer: Its value is “+++”.

Question: With `COC(=O)N1Cc2cc(Cl)ccc2-n2c(C3CC4(C3)CN(c3ncc(F)cn3)C4)nnc2C1C` (centres unmarked) [compound 170] as the compound, how does the “MDR1 EER” value (MDR1-MDCK cells) read?
Answer: Its value is “+”.

Question: What about the “MDR1 ER” value (MDR1-MDCK cells) of the same compound?
Answer: Its value is “+”.

Question: What about the Papp A→B at 1 h, 10 μM (MDR1 (P-glycoprotein); [3]) of the same compound?
Answer: Its Papp A→B at 1 h, 10 μM is 10 to 20 ×10⁻⁶ cm/s.

Question: What about the Papp A→B at 1 h, 10 μM ([2]; pH 7.4, Papp AB WT) of the same compound?
Answer: Its Papp A→B at 1 h, 10 μM is > 20 ×10⁻⁶ cm/s.

Question: And the “WT ER” value [1]?
Answer: Its value is “++++”.

Question: With `CC1c2nnc(C3CC4(C3)CN(c3ccc(F)cn3)C4)n2-c2ccc(Cl)cc2CN1C(=O)C1(F)CC1` (centres unmarked) [compound 174] as the compound, how does the Papp A→B at 1 h, 10 μM (MDR1 (P-glycoprotein); [4]) read?
Answer: The Papp A→B at 1 h, 10 μM was > 20 ×10⁻⁶ cm/s.

Question: And the Papp A→B at 1 h, 10 μM [2, 5]?
Answer: The Papp A→B at 1 h, 10 μM was > 20 ×10⁻⁶ cm/s.

Question: For `COC(=O)N1Cc2cc(Cl)ccc2-n2c(C3CC4(C3)CN(c3ncccc3F)C4)nnc2C1C` (centres unmarked) [compound 182], which Papp A→B at 1 h, 10 μM (MDR1 (P-glycoprotein); [4]) is on record?
Answer: Its Papp A→B at 1 h, 10 μM is > 20 ×10⁻⁶ cm/s.

Question: What about the Papp A→B at 1 h, 10 μM [2, 5] of the same compound?
Answer: Its Papp A→B at 1 h, 10 μM is > 20 ×10⁻⁶ cm/s.
